{
  "source": "patent US20210198277A1",
  "about": "“AMINE-SUBSTITUTED ARYL OR HETEROARYL COMPOUNDS” (Epizyme, Inc., priority 2016, published 2021)",
  "note": "pIC50: −log10 of the molar value.",
  "data": [
    {"target": "T1, EHMT2 (Homo sapiens, UniProt Q96KQ7)", "T1 construct": "host or cells: MDA-MB-231", "T1 sequence (Q96KQ7 1-1210)": "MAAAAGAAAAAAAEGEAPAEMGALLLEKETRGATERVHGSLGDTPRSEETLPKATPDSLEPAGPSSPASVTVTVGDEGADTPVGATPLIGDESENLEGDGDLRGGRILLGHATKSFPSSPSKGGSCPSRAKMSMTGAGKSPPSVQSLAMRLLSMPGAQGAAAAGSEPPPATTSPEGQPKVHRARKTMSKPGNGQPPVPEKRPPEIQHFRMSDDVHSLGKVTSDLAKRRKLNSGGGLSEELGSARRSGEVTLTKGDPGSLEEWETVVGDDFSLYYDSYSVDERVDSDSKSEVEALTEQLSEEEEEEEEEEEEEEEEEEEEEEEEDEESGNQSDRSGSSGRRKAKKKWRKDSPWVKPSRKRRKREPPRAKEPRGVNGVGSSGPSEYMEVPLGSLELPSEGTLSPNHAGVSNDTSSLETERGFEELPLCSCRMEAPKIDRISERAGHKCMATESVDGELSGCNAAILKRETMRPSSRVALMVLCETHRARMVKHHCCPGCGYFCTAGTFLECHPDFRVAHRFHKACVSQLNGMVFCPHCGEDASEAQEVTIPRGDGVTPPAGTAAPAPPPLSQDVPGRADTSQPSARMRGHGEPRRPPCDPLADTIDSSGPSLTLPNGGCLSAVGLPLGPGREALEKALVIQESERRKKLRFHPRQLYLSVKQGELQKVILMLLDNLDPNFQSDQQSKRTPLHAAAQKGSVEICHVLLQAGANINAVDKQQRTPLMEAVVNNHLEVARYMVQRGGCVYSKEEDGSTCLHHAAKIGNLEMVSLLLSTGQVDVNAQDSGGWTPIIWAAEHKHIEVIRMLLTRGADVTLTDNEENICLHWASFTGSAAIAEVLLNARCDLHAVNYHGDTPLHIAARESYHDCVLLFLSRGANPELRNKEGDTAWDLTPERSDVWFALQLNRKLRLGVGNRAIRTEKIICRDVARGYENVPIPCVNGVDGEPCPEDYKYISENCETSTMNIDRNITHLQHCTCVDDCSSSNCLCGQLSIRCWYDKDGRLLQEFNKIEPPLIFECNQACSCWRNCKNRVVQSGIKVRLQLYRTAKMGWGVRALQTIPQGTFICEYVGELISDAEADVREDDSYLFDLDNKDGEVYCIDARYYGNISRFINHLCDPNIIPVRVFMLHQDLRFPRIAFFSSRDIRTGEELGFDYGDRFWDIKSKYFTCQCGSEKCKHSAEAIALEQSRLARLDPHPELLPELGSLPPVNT", "assay": "MDA-MB-231 H3K9me2 in-cell Western assay (EHMT2 ICW)", "format": "cell-based", "conditions": "Table VI; read-out: EHMT2 ICW IC50", "summary_of_the_method": "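Steps: compound added to plate, MDA-MB-231 cells plated in RPMI with 10% FBS, incubation for 48 h at 37 °C, fixation, overnight anti-H3K9me2 staining at 4 °C, and donkey anti-mouse 800CW with DRAQ5 counterstain. IC50 values come from percent inhibition fitted with a four-parameter model.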", "values": [
      {"smiles": "CNc1cc(C)nc(Nc2ccc(OC)c(OC[C@H](O)CN3CC(F)C3)c2)n1", "note": "[Compound 986]", "pIC50": "5.00 to 6.00"},
      {"smiles": "CNc1cc(C)nc(Nc2ccc(OC)c(CNCCN(C)C)c2)n1", "note": "[Compound 990]", "pIC50": "6.00 to 7.00"},
      {"smiles": "CNc1ccnc(Nc2ccc(OC)c(OCC(C)(O)CN3CCC3)c2)n1", "note": "(stereo not shown) [Compound 1005]", "pIC50": "5.00 to 6.00"},
      {"smiles": "CCN1CCC(O)(COc2cc(Nc3nccc(NC)n3)ccc2OC)C1", "note": "(stereo not shown) [Compound 1006]", "pIC50": "6.00 to 7.00"},
      {"smiles": "CCN1CCC(O)(COc2cc(Nc3nccc(NC)n3)ccc2OC)C1", "note": "(stereo not shown) [Compound 1007]", "pIC50": "< 5.00"},
      {"smiles": "CNc1ccnc(Nc2ccc(OC)c(OCC(C)CN3CCC3)c2)n1", "note": "(stereo not shown) [Compound 1008]", "pIC50": "6.00 to 7.00"},
      {"smiles": "CNCC(C)COc1cc(Nc2nccc(NC)n2)ccc1OC", "note": "(stereo not shown) [Compound 1009]", "pIC50": "5.00 to 6.00"},
      {"smiles": "CNCCC(C)Oc1cc(Nc2nccc(NC)n2)ccc1OC", "note": "(stereo not shown) [Compound 1011]", "pIC50": "5.00 to 6.00"},
      {"smiles": "CNc1ccnc(Nc2ccc(OC)c(OCCC(C)N3CCC3)c2)n1", "note": "(stereo not shown) [Compound 1014]", "pIC50": "5.00 to 6.00"},
      {"smiles": "CNc1ccnc(Nc2ccc(OC)c(OCCC(C)NC)c2)n1", "note": "(stereo not shown) [Compound 1016]", "pIC50": "5.00 to 6.00"}
    ]}
  ]
}
